According to ChEMBL document CHEMBL5608141, “Identification of compartment-specific drug sensitivities in CRC organoid-stroma co-cultures” (2024):

Experiments:
Format in all cases: functional, Homo sapiens
Design in all cases: dose or concentration left out as unconfirmed
Colon cancer organoid [1] = assay: Identification of compartment-specific drug sensitivities in O14 CRC organoid-stroma F14 CAF co-cultures. Organoid is transduced with Lucferase2-P2A-EGFP lentivirus, fibroblast with Renilla-dsRed lentivirus. Dual-Glo Luciferase assay is used to report viability data.
Colon cancer organoid [2] = assay: Identification of compartment-specific drug sensitivities in O20 CRC organoid-stroma F20 CAF co-cultures. Organoid is transduced with Lucferase2-P2A-EGFP lentivirus, fibroblast with Renilla-dsRed lentivirus. Dual-Glo Luciferase assay is used to report viability data.
Colon cancer organoid [3] = assay: Identification of compartment-specific drug sensitivities in O06 CRC organoid-stroma F06 CAF co-cultures. Organoid is transduced with Lucferase2-P2A-EGFP lentivirus, fibroblast with Renilla-dsRed lentivirus. Dual-Glo Luciferase assay is used to report viability data.
[4] = Transduced with Lucferase2-P2A-EGFP lentivirus
[5] = Transduced with Renilla-dsRed lentivirus

SMILES	Cell Viability (Colon cancer organoid [1]; [4]) [%]	Cell Viability (Colon cancer organoid [1]; [5]) [%]	Cell Viability (Colon cancer organoid [2]; [4]) [%]	Cell Viability (Colon cancer organoid [2]; [5]) [%]	Cell Viability (Colon cancer organoid [3]; [4]) [%]	Cell Viability (Colon cancer organoid [3]; [5]) [%]
CC(C)Oc1ccc(-c2nn([C@@H](C)c3oc4ccc(F)cc4c(=O)c3-c3cccc(F)c3)c3ncnc(N)c23)cc1F [UMBRALISIB]	161.449	91.4949	103.314	87.858	96.678	112.425
CCCc1cc(C)[nH]c(=O)c1CNC(=O)c1cc(-c2ccc(N3CCN(C(C)C)CC3)nc2)cc2c1cnn2C(C)C	84.6561	97.5786	59.2451	157.842	81.1391	118.175
COc1c(OCCCN2CCOCC2)ccc2c1N=C(NC(=O)c1cnc(N)nc1)N1CCN=C21 [COPANLISIB]	8.823	38.6713	2.299	117.524	1.487	40.0213
O=C(Nc1nc2cccc(-c3ccc(CN4CCS(=O)(=O)CC4)cc3)n2n1)C1CC1 [FILGOTINIB]	113.804	94.0881	113.419	86.0918	100.525	92.8016
CCOc1cc(N2CCC(O)CC2)ccc1Nc1ncc2c(n1)N(C1CCCC1)CCC(=O)N2C	84.5477	160.888	51.7552	144.517	80.3618	151.464
CC[C@H](CC(=O)O)n1c(=O)c2ncccc2n(Cc2cn(C)c3cc(C)cc(C)c23)c1=O [BI-1942]	102.331	109.089	108.303	100.799	119.907	136.619
CCCCN(Cc1ccccc1)C(=O)c1ccc(S(=O)(=O)Nc2ccccc2)cc1	91.6685	100.658	74.981	116.955	68.2046	126.816
COc1cc(C(=O)O)ncc1C#Cc1ccccc1NS(=O)(=O)c1cccc2c(N(C)C)ccnc12 [MSC-0516]	102.238	113.463	90.203	109.372	46.2412	64.6541
CN(C)C(=O)N1CC[C@H](NC2=Nc3cc(F)ccc3N(CC(F)F)c3ccc(Cl)cc32)C1	119.43	91.6025	71.357	98.2431	22.5333	79.8107
CC(C)(C)c1cc(NC(=O)Nc2ccc(-c3cn4c(n3)sc3cc(OCCN5CCOCC5)ccc34)cc2)no1 [QUIZARTINIB]	48.7226	98.8717	58.8072	111.29	26.1053	134.448
CNC(=O)c1cc(C(=O)NC2CC2)cn(Cc2ccccc2)c1=O [GSK620]	84.0371	91.229	93.0444	100.747	111.223	132.009
CCNC(=O)c1cc2c(-c3cc(C(C)(C)O)ccc3Oc3c(C)cc(F)cc3C)cn(C)c(=O)c2[nH]1 [ABBV-744]	77.9517	194.681	58.4777	215.224	91.6049	287.135
Cc1c(N2CCNCC2)nc2ccc(Br)cc2c1C(=O)NC[C@H](CCC(=O)O)c1ccccc1Cl [BAY-403]	117.744	98.3874	121.312	79.2483	78.4474	70.4581
O=C(Nc1cccnn1)N1CCC(=Cc2cccc(Oc3ccc(C(F)(F)F)cn3)c2)CC1	96.3845	120.944	75.4997	114.419	103.919	125.543
CNc1cc(Oc2cc(C(=O)Nc3cc(N4CCN(C)CC4)cc(C(F)(F)F)c3)ccc2C)ncn1	198.58	101.862	163.613	75.5289	72.9479	75.3319
Cl.Cn1cncc1[C@](O)(COc1ccc(C#N)cc1-c1ccc(OC(F)(F)F)cc1)c1ccc(C#N)cc1	31.1337	75.4889	15.3114	150.357	46.0933	149.066
Cn1c(=O)[nH]c2cc(N3C(=O)c4cccc5c(CCCO)ccc(c45)C3=O)ccc21	148.781	92.4291	127.541	89.8045	115.119	110.623
Nc1nc(NCc2ccccc2)nc(-c2ccccc2CO)n1 [Ogerin]	107.532	92.7829	81.1547	98.0569	100.001	107.856
COc1ccccc1C(=O)Nc1cc2c(cc1N1CCNCC1C)n(C)c(=O)n2C (stereo not given)	118.564	101.199	131.273	107.173	112.155	138.916
COc1ccc2c(c1)O[C@@H](c1ccc(OC)c(OC)c1)C[C@H]2NC(=O)C1(c2ccc3c(c2)OC(F)(F)O3)CC1 [A-1596586]	83.2966	94.4694	84.651	101.93	95.9961	117.187
Cc1cc(C)cc([C@H]2c3cc(C)ccc3NC(=O)CN2C(=O)c2ccc(Br)s2)c1	153.941	101.442	134.675	98.7461	94.0417	115.465
CC1=C(C(=O)Nc2cc3cn[nH]c3cc2F)C(c2ccc(C(F)(F)F)cc2)CC(=O)N1 (stereo not given)	103.838	118.18	133.463	94.2958	110.512	74.1449
CNCc1ccccc1-c1csc([C@@H](C)Nc2nc(C)nc3cc(OC)c(OC)cc23)c1 [BAY-293]	65.4303	97.5193	78.2703	145.24	41.2905	141.656
Cc1c(NC(=O)COc2ccc(Cl)cc2C(=O)c2cc(F)cc(C(F)(F)F)c2)ccc(C(=O)O)c1F [BI 2540]	85.0828	72.3222	66.158	145.555	104.073	125.125
CC1=C(C#N)C(c2ccc3c(c2)c(NC(=O)c2ccccc2C)nn3C)C(C#N)=C(C)N1 [BAY-974]	92.3005	117.089	105.235	128.576	90.4588	87.5124
